Data as given in publication PMC10165273, “Itch receptor MRGPRX4 interacts with the receptor activity–modifying proteins” (The Journal of Biological Chemistry, 2023).
Values joined by “and” are separate entries in the source; they are usually repeats but may differ in a detail not shown here. Identical values can stand only once. Like-named read-outs stand apart in the source and are kept apart here.

How the values were obtained:
Format in all cases: cell-based
MRGPRX4 + RAMP1 = molecular target: T1, MRGPRX4 + RAMP1 (Homo sapiens, UniProt Q96LA9); experiment: IP1 accumulation, MRGPRX4 coexpressed with RAMP1; parameters: key to IP1 Basal / response to agonist, X4:ramp1.I:1 / response to agonist, X4:ramp1.I:2 / response to agonist, X4:ramp1.I:0.25 / response to agonist, X4:ramp1.I:0.5: % IP1; unstimulated mock = 0%, fully stimulated MRGPRX4 = 100%; details: for activation at 100 µM / activation at 20 µM / activation at 0.8 µM / activation at […] / activation at 0.032 µM / activation at 4 µM: 2 h, Fig S3d, read-out: IP1 accumulation; for activation at 100 µM: log [DCA] (M) -4; for activation at 20 µM: log [DCA] (M) -4.69897; for activation at 0.8 µM: log [DCA] (M) -6.09691; for activation at […]: log [DCA] (M) -6.79588; for activation at 0.032 µM: log [DCA] (M) -7.49485; for activation at 4 µM: log [DCA] (M) -5.39794
T1 construct: expressed in transfected cells; host or cells: HEK293T
Experimental: (§1) HEK293T cells were transfected with 1 pg/cell of MRGPRX4 DNA, and the amount of DNA was kept constant at 2 pg/cell with pcDNA3.1(+) empty vector, unless otherwise specified. Twenty four hours after transfection, IP1 assay was performed as previously described ([51]). When applicable, cells were treated with 1 μM YM254890 (YM) or different concentrations of U73122 for 1 h prior to addition of agonist or buffer. After incubation for 2 h, HTRF reagents and IP1 calibration standards were added and incubated for 2 h in the dark at room temperature. Time-resolved fluorescence signals were read on the BioTek Synergy NEO-TRF Hybrid multi-mode reader (BioTek Instruments). All data were carried out in three independent experiments with three technical replicate each.
For a homogenous transfection of MRGPRX4, a master mix of MRGPRX4 DNA was made prior to addition of the RAMP DNA. […]
(§2) Data reduction, standard calibration, and transformation of HTRF data were performed as previously described ([51]). Normalized IP1 values were calculated relative to the unstimulated mock-transfected cells (set to 0%) and fully stimulated MRGPRX4 (alone if applicable) (set to 100%).

MRGPRX4 + RAMP2 = molecular target: T2, MRGPRX4 + RAMP2 (Homo sapiens, UniProt Q96LA9); experiment: IP1 accumulation, MRGPRX4 coexpressed with RAMP2; parameters: key to response to agonist, X4:ramp2.I:2: % IP1: mock-transfected unstimulated = 0%, fully stimulated MRGPRX4 = 100%; key to IP1 Basal / response to agonist, X4:ramp2.I:0.25 / response to agonist, X4:ramp2.I:0.5 / response to agonist, X4:ramp2.I:1: % IP1; unstimulated mock = 0%, fully stimulated MRGPRX4 = 100%; details: for activation at 20 µM / activation at 4 µM / activation at 0.8 µM / activation at […] / activation at 0.032 µM / activation at 100 µM: 2 h, Fig S3e, read-out: IP1 accumulation; for activation at 20 µM: log [DCA] (M) -4.69897; for activation at 4 µM: log [DCA] (M) -5.39794; for activation at 0.8 µM: log [DCA] (M) -6.09691; for activation at […]: log [DCA] (M) -6.79588; for activation at 0.032 µM: log [DCA] (M) -7.49485; for activation at 100 µM: log [DCA] (M) -4; for IP1 Basal / IP1 span (Emax minus basal) / Emax: normalized per agonist; for Emax: read-out: IP1 Emax
T2 construct: expressed in transfected cells; host or cells: HEK293T
Experimental: as §1
For RAMP DNA titration assay, HEK293T cells were cotransfected with a constant amount of 1 pg/cell of FLAG-MRGPRX4-GFP10-1D4 to which a serial dilution of 1, 0.75, 0.5, 0.25, or 0 pg/cell of each HA-RAMP-OLLAS was added. For a homogenous transfection of MRGPRX4, a master mix of MRGPRX4 DNA was made prior to addition of the RAMP DNA. […]
as §2

MRGPRX4 + RAMP3 = molecular target: T3, MRGPRX4 + RAMP3 (Homo sapiens, UniProt Q96LA9); experiment: IP1 accumulation, MRGPRX4 coexpressed with RAMP3; parameters: key: % IP1; unstimulated mock = 0%, fully stimulated MRGPRX4 = 100%; details: Figure 4c-f; agonist 100µM; X4:ramp3 1:2; MRGPRX4 = 100
T3 construct: expressed in transfected cells; host or cells: HEK293T

[1] = MRGPRX4 + RAMP2 0.25 pg (Fig. S3)
[2] = MRGPRX4 + RAMP2 0.5 pg (Fig. S3)

T1 sequence (Q96LA9 whole entry): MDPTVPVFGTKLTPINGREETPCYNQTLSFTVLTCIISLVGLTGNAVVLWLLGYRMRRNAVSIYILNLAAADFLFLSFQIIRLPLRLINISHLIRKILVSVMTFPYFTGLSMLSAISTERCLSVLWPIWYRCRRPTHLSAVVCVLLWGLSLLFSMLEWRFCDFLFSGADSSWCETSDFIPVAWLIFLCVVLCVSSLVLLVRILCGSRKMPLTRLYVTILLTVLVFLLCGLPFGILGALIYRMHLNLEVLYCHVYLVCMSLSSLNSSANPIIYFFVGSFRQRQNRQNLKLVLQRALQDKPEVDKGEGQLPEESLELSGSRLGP
T2 sequence (Q96LA9 whole entry): as above
T3 sequence (Q96LA9 whole entry): as above

Compound: C[C@H](CCC(=O)O)[C@H]1CC[C@H]2[C@@H]3CC[C@@H]4C[C@H](O)CC[C@]4(C)[C@H]3C[C@H](O)[C@]12C [DCA, deoxycholic acid]
- activation at 100 µM (MRGPRX4 + RAMP1; ratio MRGPRX4:RAMP1 1:0.25): 91.8%
- activation at 20 µM (MRGPRX4 + RAMP1; ratio MRGPRX4:RAMP1 1:0.25): 80.7%
- activation at 0.8 µM (MRGPRX4 + RAMP1; ratio MRGPRX4:RAMP1 1:0.25): 27.4%
- activation at […] (MRGPRX4 + RAMP1; ratio MRGPRX4:RAMP1 1:0.25): 30.3%
- activation at 0.032 µM (MRGPRX4 + RAMP1; ratio MRGPRX4:RAMP1 1:0.25): 28.5%
- activation at 100 µM (MRGPRX4 + RAMP1; ratio MRGPRX4:RAMP1 1:0.5): 103%
- activation at 20 µM (MRGPRX4 + RAMP1; ratio MRGPRX4:RAMP1 1:0.5): 62.7%
- activation at 4 µM (MRGPRX4 + RAMP1; ratio MRGPRX4:RAMP1 1:0.5): 38.6%
- activation at 0.8 µM (MRGPRX4 + RAMP1; ratio MRGPRX4:RAMP1 1:0.5): 26.5%
- activation at […] (MRGPRX4 + RAMP1; ratio MRGPRX4:RAMP1 1:0.5): 22.5%
- activation at 0.032 µM (MRGPRX4 + RAMP1; ratio MRGPRX4:RAMP1 1:0.5): 22.6%
- activation at 20 µM (MRGPRX4 + RAMP1; ratio MRGPRX4:RAMP1 1:1): 61.5%
- activation at 4 µM (MRGPRX4 + RAMP1; ratio MRGPRX4:RAMP1 1:1): 34.6%
- activation at 0.8 µM (MRGPRX4 + RAMP1; ratio MRGPRX4:RAMP1 1:1): 30.1%
- activation at […] (MRGPRX4 + RAMP1; ratio MRGPRX4:RAMP1 1:1): 22.8%
- activation at 20 µM (MRGPRX4 + RAMP1; ratio MRGPRX4:RAMP1 1:2): 59.4%
- activation at 4 µM (MRGPRX4 + RAMP1; ratio MRGPRX4:RAMP1 1:2): 29.7%
- activation at 0.8 µM (MRGPRX4 + RAMP1; ratio MRGPRX4:RAMP1 1:2): 22%
- activation at […] (MRGPRX4 + RAMP1; ratio MRGPRX4:RAMP1 1:2): 15.8%
- Emax (MRGPRX4 + RAMP1; Figure 4a bottom, DNA ratio MRGPRX4:RAMP1 1:0.5, MRGPRX4 alone = 100, read-out: efficacy): 109%
- response to agonist, X4:ramp1.I:0.25 (MRGPRX4 + RAMP1; Figure 4c-f, agonist 100µM, X4:ramp1 1:0.25, MRGPRX4 = 100): 100.247 and 94.5976
- response to agonist, X4:ramp1.I:0.5 (MRGPRX4 + RAMP1; Figure 4c-f, agonist 100µM, X4:ramp1 1:0.5, MRGPRX4 = 100): 101.591 and 94.608
- response to agonist, X4:ramp1.I:1 (MRGPRX4 + RAMP1; Figure 4c-f, agonist 100µM, X4:ramp1 1:1, MRGPRX4 = 100): 97.7538 and 86.0836
- response to agonist, X4:ramp1.I:2 (MRGPRX4 + RAMP1; Figure 4c-f, agonist 100µM, X4:ramp1 1:2, MRGPRX4 = 100): 90.6013 and 100.616
- IP1 Basal (MRGPRX4 + RAMP1; MRGPRX4 + RAMP1 0.25 pg (Fig. S3), normalized per agonist): 25.16
- Emax (MRGPRX4 + RAMP1; MRGPRX4 + RAMP1 0.25 pg (Fig. S3), normalized per agonist, read-out: IP1 Emax): 113%
- Emax (MRGPRX4 + RAMP1; MRGPRX4 + RAMP1 0.25 pg (Fig. S3), normalized per agonist, read-out: IP1 span): 87.7%
- IP1 Basal (MRGPRX4 + RAMP1; MRGPRX4 + RAMP1 0.5 pg (Fig. S3), normalized per agonist): 24.94
- Emax (MRGPRX4 + RAMP1; MRGPRX4 + RAMP1 0.5 pg (Fig. S3), normalized per agonist, read-out: IP1 Emax): 117%
- Emax (MRGPRX4 + RAMP1; MRGPRX4 + RAMP1 0.5 pg (Fig. S3), normalized per agonist, read-out: IP1 span): 92%
- IP1 Basal (MRGPRX4 + RAMP1; MRGPRX4 + RAMP1 1 pg (Fig. S3), normalized per agonist): 22.25
- Emax (MRGPRX4 + RAMP1; MRGPRX4 + RAMP1 1 pg (Fig. S3), normalized per agonist, read-out: IP1 Emax): 118%
- Emax (MRGPRX4 + RAMP1; MRGPRX4 + RAMP1 1 pg (Fig. S3), normalized per agonist, read-out: IP1 span): 95.8%
- IP1 Basal (MRGPRX4 + RAMP1; MRGPRX4 + RAMP1 2 pg (Fig. S3), normalized per agonist): 17.30
- Emax (MRGPRX4 + RAMP1; MRGPRX4 + RAMP1 2 pg (Fig. S3), normalized per agonist, read-out: IP1 Emax): 112%
- Emax (MRGPRX4 + RAMP1; MRGPRX4 + RAMP1 2 pg (Fig. S3), normalized per agonist, read-out: IP1 span): 94.5%
- activation at 20 µM (MRGPRX4 + RAMP2; ratio MRGPRX4:RAMP2 1:0.25): 59.5%
- activation at 4 µM (MRGPRX4 + RAMP2; ratio MRGPRX4:RAMP2 1:0.25): 39%
- activation at 0.8 µM (MRGPRX4 + RAMP2; ratio MRGPRX4:RAMP2 1:0.25): 28.2%
- activation at […] (MRGPRX4 + RAMP2; ratio MRGPRX4:RAMP2 1:0.25): 28.2%
- activation at 0.032 µM (MRGPRX4 + RAMP2; ratio MRGPRX4:RAMP2 1:0.25): 29.4%
- activation at 20 µM (MRGPRX4 + RAMP2; ratio MRGPRX4:RAMP2 1:0.5): 51.9%
- activation at 4 µM (MRGPRX4 + RAMP2; ratio MRGPRX4:RAMP2 1:0.5): 28.9%
- activation at 0.8 µM (MRGPRX4 + RAMP2; ratio MRGPRX4:RAMP2 1:0.5): 21.9%
- activation at […] (MRGPRX4 + RAMP2; ratio MRGPRX4:RAMP2 1:0.5): 21.5%
- activation at 100 µM (MRGPRX4 + RAMP2; ratio MRGPRX4:RAMP2 1:1): 56.6%
- activation at 20 µM (MRGPRX4 + RAMP2; ratio MRGPRX4:RAMP2 1:1): 35%
- activation at 0.8 µM (MRGPRX4 + RAMP2; ratio MRGPRX4:RAMP2 1:1): 13.8%
- activation at […] (MRGPRX4 + RAMP2; ratio MRGPRX4:RAMP2 1:1): 13.1%
- activation at 0.032 µM (MRGPRX4 + RAMP2; ratio MRGPRX4:RAMP2 1:1): 13.2%
- activation at 100 µM (MRGPRX4 + RAMP2; ratio MRGPRX4:RAMP2 1:2): 20.6%
- activation at 20 µM (MRGPRX4 + RAMP2; ratio MRGPRX4:RAMP2 1:2): 10.3%
- activation at 4 µM (MRGPRX4 + RAMP2; ratio MRGPRX4:RAMP2 1:2): 5.86%
- activation at […] (MRGPRX4 + RAMP2; ratio MRGPRX4:RAMP2 1:2): 6.3%
- activation at 0.032 µM (MRGPRX4 + RAMP2; ratio MRGPRX4:RAMP2 1:2): 5.62%
- response to agonist, X4:ramp2.I:0.25 (MRGPRX4 + RAMP2; Figure 4c-f, agonist 100µM, X4:ramp2 1:0.25, MRGPRX4 = 100): 82.2333 and 78.588
- response to agonist, X4:ramp2.I:0.5 (MRGPRX4 + RAMP2; Figure 4c-f, agonist 100µM, X4:ramp2 1:0.5, MRGPRX4 = 100): 59.4831 and 67.5869
- response to agonist, X4:ramp2.I:1 (MRGPRX4 + RAMP2; Figure 4c-f, agonist 100µM, X4:ramp2 1:1, MRGPRX4 = 100): 42.5729 and 40.2351
- response to agonist, X4:ramp2.I:2 (MRGPRX4 + RAMP2; Figure 4c-f, agonist 100µM, X4:ramp2 1:2, MRGPRX4 = 100): 19.2213 and 20.608
- IP1 Basal (MRGPRX4 + RAMP2; [1]): 22.40
- IP1 span (Emax minus basal) (MRGPRX4 + RAMP2; [1]): 84.8%
- Emax (MRGPRX4 + RAMP2; [1]): 107%
- IP1 Basal (MRGPRX4 + RAMP2; [2]): 17.50
- IP1 span (Emax minus basal) (MRGPRX4 + RAMP2; [2]): 77%
- Emax (MRGPRX4 + RAMP2; [2]): 94.5%
- IP1 Basal (MRGPRX4 + RAMP2; MRGPRX4 + RAMP2 1 pg (Fig. S3)): 11.18
- IP1 span (Emax minus basal) (MRGPRX4 + RAMP2; MRGPRX4 + RAMP2 1 pg (Fig. S3)): 45%
- Emax (MRGPRX4 + RAMP2; MRGPRX4 + RAMP2 1 pg (Fig. S3)): 56.2%
- IP1 Basal (MRGPRX4 + RAMP2; MRGPRX4 + RAMP2 2 pg (Fig. S3)): 5.412
- IP1 span (Emax minus basal) (MRGPRX4 + RAMP2; MRGPRX4 + RAMP2 2 pg (Fig. S3)): 24.4%
- Emax (MRGPRX4 + RAMP2; MRGPRX4 + RAMP2 2 pg (Fig. S3)): 29.9%
- response to agonist, X4:ramp3.I:2 (MRGPRX4 + RAMP3): 55.7055 and 63.4334
